Assays:
[1] = test system: Cushing's and bladder tumours; test: Treatment of cancer in dogs; type: in vivo
Tumour cells = test: Sensitisation of tumour cells to radiation therapy; type: cell-based; settings: tumour cells doped with the substance

Structure (SMILES)	treatment of Cushing's and bladder tumours [1]	sensitisation to radiation therapy (Tumour cells)
CCCCCCCCC=CCCCCCCCCCCCCOP(=O)([O-])OCCC[N+](C)(C)C [erucylphospho-(N,N,N-trimethyl)-propylammonium]	treated successfully	–
CCCCCCCCC=CCCCCCCCCCCCCOP(=O)([O-])OCCC[N+](C)(C)C [erufosin]	–	sensitised to radiation therapy
